± gives the uncertainty stated by the source.
Assay: xn = mol fraction of the nth substance listed

Cc1ccccn1 + Brc1ccccc1
viscosity [mPa·s], 101 kPa
Conditions	x1 = 0.2	x1 = 0.4	x1 = 0.6	x1 = 0.8
293.15 K	1.072 ± 0.018	1.016 ± 0.017	0.954 ± 0.016	0.885 ± 0.015
313.15 K	0.833 ± 0.014	0.785 ± 0.014	0.736 ± 0.013	0.684 ± 0.012

ClC=C(Cl)Cl + C1CCOC1
303.15 K, 101 kPa
Conditions	viscosity [mPa·s]
x2 = 0.0614	0.5484 ± 0.0046
x2 = 0.1057	0.5631 ± 0.0047
x2 = 0.2281	0.5879 ± 0.0049
x2 = 0.3529	0.5932 ± 0.005
x2 = 0.4929	0.5817 ± 0.0049
x2 = 0.5166	0.5781 ± 0.0049
x2 = 0.64	0.556 ± 0.0047
x2 = 0.7608	0.5289 ± 0.0045
x2 = 0.8813	0.4983 ± 0.0043
x2 = 0.9421	0.4822 ± 0.0042

ClC=C(Cl)Cl + C1COCCO1
101.33 kPa
Conditions	viscosity [mPa·s]
298.15 K, x1 = 0.1027	1.036 ± 0.017
298.15 K, x1 = 0.2015	0.963 ± 0.016
298.15 K, x1 = 0.3002	0.909 ± 0.014
298.15 K, x1 = 0.409	0.854 ± 0.013
298.15 K, x1 = 0.502	0.814 ± 0.012
298.15 K, x1 = 0.6078	0.767 ± 0.011
298.15 K, x1 = 0.6921	0.732 ± 0.01
298.15 K, x1 = 0.8076	0.685 ± 0.009
298.15 K, x1 = 0.9058	0.649 ± 0.009
303.15 K, x2 = 0.0577	0.5863 ± 0.0044
303.15 K, x2 = 0.1189	0.6434 ± 0.0048
303.15 K, x2 = 0.289	0.7496 ± 0.0055
303.15 K, x2 = 0.3696	0.7787 ± 0.0057
303.15 K, x2 = 0.4012	0.7885 ± 0.0058
303.15 K, x2 = 0.5728	0.837 ± 0.0061
303.15 K, x2 = 0.6186	0.8515 ± 0.0062
303.15 K, x2 = 0.7841	0.9264 ± 0.0067
303.15 K, x2 = 0.892	0.9979 ± 0.0072
303.15 K, x2 = 0.9513	1.045 ± 0.0075
308.15 K, x1 = 0.1027	0.907 ± 0.015
308.15 K, x1 = 0.2015	0.852 ± 0.014
308.15 K, x1 = 0.3002	0.804 ± 0.013
308.15 K, x1 = 0.409	0.757 ± 0.012
308.15 K, x1 = 0.502	0.727 ± 0.011
308.15 K, x1 = 0.6078	0.693 ± 0.01
308.15 K, x1 = 0.6921	0.67 ± 0.009
308.15 K, x1 = 0.8076	0.64 ± 0.009
308.15 K, x1 = 0.9058	0.613 ± 0.008
318.15 K, x1 = 0.1027	0.815 ± 0.013
318.15 K, x1 = 0.2015	0.764 ± 0.012
318.15 K, x1 = 0.3002	0.726 ± 0.011
318.15 K, x1 = 0.409	0.69 ± 0.011
318.15 K, x1 = 0.502	0.673 ± 0.01
318.15 K, x1 = 0.6078	0.653 ± 0.009
318.15 K, x1 = 0.6921	0.635 ± 0.009
318.15 K, x1 = 0.8076	0.605 ± 0.008
318.15 K, x1 = 0.9058	0.586 ± 0.008

NC1CCCCC1 + C1COCO1
298.15 K, 101 kPa
Conditions	viscosity [mPa·s]
x2 = 0.1295	1.517 ± 0.012
x2 = 0.2508	1.331 ± 0.01
x2 = 0.3646	1.174 ± 0.0093
x2 = 0.4716	1.044 ± 0.0084
x2 = 0.5724	0.9345 ± 0.0076
x2 = 0.6676	0.8431 ± 0.007
x2 = 0.7575	0.7633 ± 0.0064
x2 = 0.8427	0.6955 ± 0.0059
x2 = 0.9234	0.6344 ± 0.0055

CC(O)CO (stereo not given) + CC#N
viscosity [mPa·s], 100 kPa
Conditions	x2 = 0.1127	x2 = 0.2	x2 = 0.3055	x2 = 0.4021	x2 = 0.5008	x2 = 0.5989	x2 = 0.6987	x2 = 0.7958	x2 = 0.8961
293.15 K	31.4 ± 6.3	20.3 ± 4.1	12.2 ± 2.4	7.53 ± 1.5	4.71 ± 0.94	2.9 ± 0.58	1.82 ± 0.36	1.1 ± 0.22	0.66 ± 0.13
298.15 K	25.4 ± 5.1	16.9 ± 3.4	10.3 ± 2.1	6.21 ± 1.2	4.02 ± 0.81	2.42 ± 0.49	1.57 ± 0.31	0.97 ± 0.19	0.59 ± 0.12
303.15 K	20.8 ± 4.2	13.8 ± 2.8	8.68 ± 1.7	5.48 ± 1.1	3.52 ± 0.71	2.25 ± 0.45	1.4 ± 0.28	0.87 ± 0.17	0.53 ± 0.11

ClC=C(Cl)Cl + CC#N
Conditions	viscosity [mPa·s]
298.15 K, 101 kPa, x1 = 0.0501	0.358 ± 0.056
298.15 K, 101 kPa, x1 = 0.099	0.373 ± 0.058
298.15 K, 101 kPa, x1 = 0.2003	0.406 ± 0.061
298.15 K, 101 kPa, x1 = 0.3001	0.434 ± 0.064
298.15 K, 101 kPa, x1 = 0.3984	0.461 ± 0.068
298.15 K, 101 kPa, x1 = 0.4976	0.485 ± 0.07
298.15 K, 101 kPa, x1 = 0.5968	0.504 ± 0.072
298.15 K, 101 kPa, x1 = 0.7206	0.526 ± 0.075
298.15 K, 101 kPa, x1 = 0.7798	0.532 ± 0.075
298.15 K, 101 kPa, x1 = 0.9038	0.541 ± 0.076
298.15 K, 101 kPa, x2 = 0.0708	0.524 ± 0.005
298.15 K, 101 kPa, x2 = 0.1846	0.515 ± 0.005
298.15 K, 101 kPa, x2 = 0.3572	0.494 ± 0.005
298.15 K, 101 kPa, x2 = 0.4854	0.471 ± 0.005
298.15 K, 101 kPa, x2 = 0.5616	0.458 ± 0.005
298.15 K, 101 kPa, x2 = 0.6719	0.433 ± 0.005
298.15 K, 101 kPa, x2 = 0.775	0.403 ± 0.004
298.15 K, 101 kPa, x2 = 0.9121	0.369 ± 0.004
303.15 K, 101.32 kPa, x2 = 0.0893	0.5209 ± 0.0072
303.15 K, 101.32 kPa, x2 = 0.1803	0.5171 ± 0.0071
303.15 K, 101.32 kPa, x2 = 0.2502	0.5072 ± 0.0071
303.15 K, 101.32 kPa, x2 = 0.3697	0.4877 ± 0.0069
303.15 K, 101.32 kPa, x2 = 0.5273	0.4539 ± 0.0066
303.15 K, 101.32 kPa, x2 = 0.6422	0.4238 ± 0.0064
303.15 K, 101.32 kPa, x2 = 0.7089	0.4071 ± 0.0063
303.15 K, 101.32 kPa, x2 = 0.7814	0.3824 ± 0.0061
303.15 K, 101.32 kPa, x2 = 0.8363	0.3654 ± 0.0059
303.15 K, 101.32 kPa, x2 = 0.9308	0.3451 ± 0.0058
308.15 K, 101 kPa, x2 = 0.0708	0.483 ± 0.005
308.15 K, 101 kPa, x2 = 0.1846	0.471 ± 0.005
308.15 K, 101 kPa, x2 = 0.3572	0.451 ± 0.005
308.15 K, 101 kPa, x2 = 0.4854	0.43 ± 0.005
308.15 K, 101 kPa, x2 = 0.5616	0.417 ± 0.005
308.15 K, 101 kPa, x2 = 0.6719	0.396 ± 0.004
308.15 K, 101 kPa, x2 = 0.775	0.37 ± 0.004
308.15 K, 101 kPa, x2 = 0.9121	0.341 ± 0.004
318.15 K, 101 kPa, x2 = 0.0708	0.443 ± 0.005
318.15 K, 101 kPa, x2 = 0.1846	0.431 ± 0.005
318.15 K, 101 kPa, x2 = 0.3572	0.413 ± 0.005
318.15 K, 101 kPa, x2 = 0.4854	0.393 ± 0.004
318.15 K, 101 kPa, x2 = 0.5616	0.384 ± 0.004
318.15 K, 101 kPa, x2 = 0.6719	0.364 ± 0.004
318.15 K, 101 kPa, x2 = 0.775	0.342 ± 0.004
318.15 K, 101 kPa, x2 = 0.9121	0.315 ± 0.004

ClC=C(Cl)Cl + CC(=O)CC(C)C
viscosity [mPa·s], 101.33 kPa
Conditions	x1 = 0.1088	x1 = 0.1998	x1 = 0.3286	x1 = 0.4037	x1 = 0.5018	x1 = 0.5921	x1 = 0.7362	x1 = 0.7986	x1 = 0.8859
298.15 K	0.564 ± 0.007	0.578 ± 0.007	0.593 ± 0.008	0.603 ± 0.008	0.616 ± 0.008	0.621 ± 0.008	0.631 ± 0.008	0.63 ± 0.008	0.624 ± 0.008
308.15 K	0.508 ± 0.007	0.516 ± 0.007	0.533 ± 0.007	0.546 ± 0.007	0.561 ± 0.007	0.574 ± 0.007	0.595 ± 0.008	0.6 ± 0.008	0.605 ± 0.008
318.15 K	0.464 ± 0.006	0.475 ± 0.006	0.49 ± 0.006	0.5 ± 0.007	0.51 ± 0.007	0.519 ± 0.007	0.533 ± 0.007	0.539 ± 0.007	0.547 ± 0.007

CC(O)CO (stereo not given) + CC(=O)N(C)C
viscosity [mPa·s], 101 kPa
Conditions	x2 = 0.0807	x2 = 0.0999	x2 = 0.2	x2 = 0.2994	x2 = 0.4014	x2 = 0.4996	x2 = 0.6	x2 = 0.6954	x2 = 0.7937	x2 = 0.8997
293.15 K	36.91 ± 0.84	33.19 ± 0.76	19.06 ± 0.46	11.57 ± 0.29	7.324 ± 0.2	4.919 ± 0.14	3.403 ± 0.1	2.466 ± 0.074	1.827 ± 0.056	1.349 ± 0.042
303.15 K	21.61 ± 0.53	19.64 ± 0.48	12.06 ± 0.3	7.768 ± 0.21	5.202 ± 0.15	3.659 ± 0.11	2.637 ± 0.079	1.987 ± 0.06	1.512 ± 0.047	1.151 ± 0.037
313.15 K	13.49 ± 0.34	12.39 ± 0.31	8.071 ± 0.21	5.477 ± 0.15	3.845 ± 0.11	2.819 ± 0.084	2.108 ± 0.064	1.634 ± 0.05	1.277 ± 0.04	1 ± 0.032
323.15 K	8.96 ± 0.23	8.317 ± 0.22	5.673 ± 0.16	4.023 ± 0.12	2.939 ± 0.087	2.229 ± 0.067	1.718 ± 0.053	1.368 ± 0.043	1.097 ± 0.035	0.879 ± 0.029

ClC=C(Cl)Cl + CC(C)(C)O
303.15 K, 101.3 kPa
Conditions	viscosity [mPa·s]
x1 = 0.1042	1.951 ± 0.025
x1 = 0.2103	1.329 ± 0.017
x1 = 0.3164	1.018 ± 0.014
x1 = 0.4143	0.856 ± 0.012
x1 = 0.5147	0.758 ± 0.01
x1 = 0.6204	0.689 ± 0.01
x1 = 0.7102	0.648 ± 0.009
x1 = 0.8036	0.608 ± 0.009
x1 = 0.9088	0.562 ± 0.008

NC1CCCCC1 + CC(C)(C)O
298.15 K, 101 kPa
Conditions	viscosity [mPa·s]
x1 = 0.0767	4.039 ± 0.046
x1 = 0.1574	3.722 ± 0.043
x1 = 0.2426	3.444 ± 0.039
x1 = 0.3325	3.203 ± 0.037
x1 = 0.4277	2.974 ± 0.034
x1 = 0.5285	2.749 ± 0.032
x1 = 0.6355	2.519 ± 0.029
x1 = 0.7493	2.309 ± 0.027
x1 = 0.8706	2.106 ± 0.025
